Laboratory results as given in patent publication US11186564B2, “Dual NAV1.2/5HT2a inhibitors for treating CNS disorders” (Sunovion Pharmaceuticals Inc., priority 2016, dated 2021).
Where two headings read alike, the source gives them in different places.

What was measured:
[1] = target: human sodium channel NaV1.2 (Homo sapiens, UniProt Q99250); assay: NaV1.2 inhibition, automated patch-clamp (Q-Patch HTX), slow inactivated state (state C); assay type: cell-based; details: hNaV1.2 CHO cells, slow inactivated state; for IC50: read-out: NaV1.2 IC50; for inhibition at 10 µM: 10 μM compound, read-out: NaV1.2 (% inh), 10 μM; for inhibition at 1 µM: 1 μM compound, read-out: NaV1.2 (% inh), 1 μM
How it was run: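 CHO K-1 cells stably expressing human NaV1.2, whole-cell automated patch clamp, holding −100 mV; slow-inactivated state (state C) read at a 5 ms step to 0 mV after 10 s at −50 mV and 15 ms at −90 mV. Percent inhibition vs vehicle; IC50 by nonlinear least-squares fit.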

[2] = target: T1, recombinant human serotonin receptor 5-HT2A (Homo sapiens, UniProt P28223); assay: 5-HT2A antagonist Ca2+ assay in CHO-K1 cells (method A aequorin luminescence / method B FLIPR fluorescence); assay type: cell-based; details: antagonist mode vs EC80 of reference agonist, method A or B
T1 construct: expressed in transfected cells; method B: loaded with Ca2+ dye
How it was run: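 Method A: CHO-K1 cells co-expressing human 5-HT2A and mitochondrial apoaequorin were given reference agonist at EC80 15 min after compound, with luminescence read. Method B: dye-loaded 5-HT2A CHO-K1 cells were pretreated with compound, then given serotonin at EC80, with FLIPR fluorescence read. IC50s came from nonlinear fits of percent inhibition.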

T1 sequence (P28223 whole entry): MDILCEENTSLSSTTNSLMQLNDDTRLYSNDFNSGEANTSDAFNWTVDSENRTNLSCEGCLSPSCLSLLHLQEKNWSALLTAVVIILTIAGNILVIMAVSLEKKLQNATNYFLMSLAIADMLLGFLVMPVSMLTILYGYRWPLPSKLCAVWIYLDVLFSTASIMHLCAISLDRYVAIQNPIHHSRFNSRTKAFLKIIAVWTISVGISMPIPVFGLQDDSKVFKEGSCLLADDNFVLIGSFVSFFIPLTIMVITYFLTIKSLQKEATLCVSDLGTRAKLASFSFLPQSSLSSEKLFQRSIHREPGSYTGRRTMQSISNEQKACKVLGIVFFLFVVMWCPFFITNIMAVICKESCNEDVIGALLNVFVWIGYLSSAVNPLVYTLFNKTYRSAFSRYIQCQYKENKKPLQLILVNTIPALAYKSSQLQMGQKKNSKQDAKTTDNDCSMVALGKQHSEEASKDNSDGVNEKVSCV
Chain of human sodium channel NaV1.2 (Q99250 whole entry): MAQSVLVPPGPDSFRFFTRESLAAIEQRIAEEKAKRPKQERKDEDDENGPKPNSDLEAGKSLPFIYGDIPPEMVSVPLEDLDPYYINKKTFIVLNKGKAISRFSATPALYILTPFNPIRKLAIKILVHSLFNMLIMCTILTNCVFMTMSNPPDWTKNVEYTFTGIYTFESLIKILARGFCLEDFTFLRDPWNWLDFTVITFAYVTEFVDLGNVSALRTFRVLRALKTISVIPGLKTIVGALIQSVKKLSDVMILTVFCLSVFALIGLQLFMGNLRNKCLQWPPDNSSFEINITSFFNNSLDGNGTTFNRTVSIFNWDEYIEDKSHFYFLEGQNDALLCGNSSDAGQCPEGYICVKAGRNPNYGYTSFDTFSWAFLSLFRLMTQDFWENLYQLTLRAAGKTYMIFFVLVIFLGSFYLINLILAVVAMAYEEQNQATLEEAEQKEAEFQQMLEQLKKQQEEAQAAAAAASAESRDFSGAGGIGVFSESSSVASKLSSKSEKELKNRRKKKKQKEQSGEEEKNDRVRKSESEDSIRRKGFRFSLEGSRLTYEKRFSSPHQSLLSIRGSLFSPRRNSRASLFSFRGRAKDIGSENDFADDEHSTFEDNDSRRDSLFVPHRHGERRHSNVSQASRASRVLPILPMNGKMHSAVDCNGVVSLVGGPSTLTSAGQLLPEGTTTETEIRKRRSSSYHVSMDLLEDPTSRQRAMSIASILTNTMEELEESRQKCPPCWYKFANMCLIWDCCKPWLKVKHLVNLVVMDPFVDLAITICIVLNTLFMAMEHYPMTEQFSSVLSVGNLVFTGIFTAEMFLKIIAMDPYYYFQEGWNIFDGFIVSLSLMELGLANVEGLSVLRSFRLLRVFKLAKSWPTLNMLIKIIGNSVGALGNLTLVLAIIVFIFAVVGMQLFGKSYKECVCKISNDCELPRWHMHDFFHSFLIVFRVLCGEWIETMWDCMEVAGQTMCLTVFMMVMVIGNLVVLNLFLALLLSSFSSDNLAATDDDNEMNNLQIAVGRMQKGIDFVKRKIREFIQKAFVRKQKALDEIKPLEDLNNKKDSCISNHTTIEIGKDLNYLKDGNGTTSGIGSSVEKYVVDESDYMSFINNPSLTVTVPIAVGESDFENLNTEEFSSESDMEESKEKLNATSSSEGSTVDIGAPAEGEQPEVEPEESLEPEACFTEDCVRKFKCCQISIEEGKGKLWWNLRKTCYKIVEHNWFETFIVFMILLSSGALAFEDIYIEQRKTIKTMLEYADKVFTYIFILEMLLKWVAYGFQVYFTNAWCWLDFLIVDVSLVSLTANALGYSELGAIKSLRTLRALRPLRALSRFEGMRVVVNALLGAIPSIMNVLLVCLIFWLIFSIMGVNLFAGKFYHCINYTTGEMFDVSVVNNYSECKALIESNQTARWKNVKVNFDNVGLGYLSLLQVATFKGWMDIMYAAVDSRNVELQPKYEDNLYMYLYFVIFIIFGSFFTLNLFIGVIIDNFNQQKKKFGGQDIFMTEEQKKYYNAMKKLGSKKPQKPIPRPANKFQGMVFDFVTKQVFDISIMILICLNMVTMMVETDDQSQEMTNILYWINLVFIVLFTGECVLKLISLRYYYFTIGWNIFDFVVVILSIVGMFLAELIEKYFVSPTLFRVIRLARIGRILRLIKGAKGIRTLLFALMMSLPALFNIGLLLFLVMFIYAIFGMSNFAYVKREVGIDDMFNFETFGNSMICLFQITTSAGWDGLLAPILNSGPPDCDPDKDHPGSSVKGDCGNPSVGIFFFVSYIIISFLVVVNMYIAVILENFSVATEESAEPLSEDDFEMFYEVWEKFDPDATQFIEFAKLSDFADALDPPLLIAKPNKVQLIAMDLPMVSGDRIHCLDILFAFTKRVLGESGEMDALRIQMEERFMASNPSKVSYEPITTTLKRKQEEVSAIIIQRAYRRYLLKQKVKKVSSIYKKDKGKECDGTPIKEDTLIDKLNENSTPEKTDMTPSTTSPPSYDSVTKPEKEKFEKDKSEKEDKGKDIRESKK

Row | SMILES | IC50 [1] [nM] | IC50 ([2]; read-out: 5HT2A IC50) [µM] | inhibition at 10 µM [1] [%] | inhibition at 1 µM [1] [%] | IC50 ([2]; 5HT2A IC50, μM) [µM]
1 | O=C1c2ccccc2CCCN1CCN1CCC(Oc2ccc(F)cc2)CC1 [Example 208, 2-(2-(4-(4-fluorophenoxy)piperidin-1-yl)ethyl)-2,3,4,5-tetrahydro-1H-benzo[c]azepin-1-one] | 1210 | 0.01 |  |  | 
2 | COc1ccc2c(c1)C(CN1CCC3(CC1)OCc1ccccc13)CC2 (centres unmarked) [Example 390, 1′-((6-methoxy-2,3-dihydro-1H-inden-1-yl)methyl)-3H-spiro[isobenzofuran-1,4′-piperidine]] | 590 | 0.75 |  |  | 
3 | CO[C@@H](CCN1CCC(Oc2ccccc2)CC1)c1ccccc1 [Example 230, (S)-1-(3-methoxy-3-phenylpropyl)-4-phenoxypiperidine] |  | 0.39 | 87 |  | 
4 | O=C(CN1CCC(Oc2ccc(F)cc2)CC1)C1CCc2ccccc21 (centres unmarked) [Example 215, 1-(2,3-dihydro-1H-inden-1-yl)-2-(4-(4-fluorophenoxy)piperidin-1-yl)ethan-1-one] |  | 0.19 |  | 25 | 
5 | c1ccc2c(c1)CCC2CN1CCC2(CCc3cnccc3O2)CC1 (centres unmarked) [Example 404, 1-((2,3-dihydro-1H-inden-1-yl)methyl)-3′,4′-dihydrospiro[piperidine-4,2′-pyrano[3,2-c]pyridine]] |  | 0.11 |  | 14 | 
6 | COc1ccccc1O[C@H]1CCN(CC2Cc3ccccc3C2)[C@H](C)C1 [Example 141, (2R,4S)-1-((2,3-dihydro-1H-inden-2-yl)methyl)-4-(2-methoxyphenoxy)-2-methylpiperidine] | 1010 | 0.2 |  |  | 
7 | O=C1c2ccncc2CCN1CCN1CCC(Oc2ccc(F)cc2)CC1 [Example 203, 2-(2-(4-(4-fluorophenoxy)piperidin-1-yl)ethyl)-3,4-dihydro-2,6-naphthyridin-1(2H)-one] |  | 0.07 | 14 |  | 
8 | c1ccc(O[C@H]2COC3(C2)CN(C[C@H]2CCc4ccccc42)C3)cc1 (single isomer, unassigned) [Compound 365] | 2180 | 0.22 |  |  | 
9 | OC1(CN2CCC(Oc3ccc(F)cc3)CC2)COCc2ccccc21 (centres unmarked) [Example 159, 4-((4-(4-fluorophenoxy)piperidin-1-yl)methyl)isochroman-4-ol] |  | 0.02 | 77 |  | 
10 | c1ccc2c(c1)CCC1(CCN(CC3Cc4ccncc4C3)CC1)O2 (centres unmarked) [Example 412, 1′-((6,7-dihydro-5H-cyclopenta[c]pyridin-6-yl)methyl)spiro[chromane-2,4′-piperidine]] |  | 1.86 |  | 18 | 
11 | CCC(=O)c1ccc(OCC(O)CN2CCN(c3ccccc3)CC2)cc1 (centres unmarked) [Example 88, 1-(4-(2-hydroxy-3-(4-phenylpiperazin-1-yl)propoxy)phenyl)propan-1-one] | 31200 | 0.58 |  |  | 
12 | c1ccc(OC2CCN(CCO[C@@H]3CCc4ccccc43)CC2)cc1 [Example 218, (R)-1-(2-((2,3-dihydro-1H-inden-1-yl)oxy)ethyl)-4-phenoxypiperidine] |  | 0.44 | 72 |  | 
13 | Cc1cccc(N2CCN(CC(O)COC3(C)COc4ccccc43)CC2)c1C (centres unmarked) [Example 81, 1-(4-(2,3-dimethylphenyl)piperazin-1-yl)-3-((3-methyl-2,3-dihydrobenzofuran-3-yl)oxy)propan-2-ol] | 160 | 0.03 |  |  | 
14 | OC(COC1CCCCC1)CN1CCCC2(CCN(c3ccccc3)C2)C1 (centres unmarked) [Example 356, 1-(cyclohexyloxy)-3-(2-phenyl-2,7-diazaspiro[4.5]decan-7-yl)propan-2-ol] | 610 | 0.25 |  |  | 
15 | O=C1CCC(c2ccc(F)cc2)=NN1CN1CCN(c2cccc(Cl)c2)CC1 [Example 62, 2-((4-(3-chlorophenyl)piperazin-1-yl)methyl)-6-(4-fluorophenyl)-4,5-dihydropyridazin-3(2H)-one] | 5270 | 0.05 |  |  | 
16 | OC(COc1ccccc1)CN1CCC2(CC1)Cc1ccccc1O2 (centres unmarked) [Example 399, 1-phenoxy-3-(3H-spiro[benzofuran-2,4′-piperidin]-1′-yl)propan-2-ol] |  | 1.83 | 92 |  | 
17 | c1ccc2c(c1)CCC1(CCN(CC3COCc4ccccc43)CC1)O2 (centres unmarked) [Example 414, 1′-(isochroman-4-ylmethyl)spiro[chromane-2,4′-piperidine]] |  | 0.26 |  | 29 | 

Row | SMILES | IC50 [1] [nM] | IC50 ([2]; read-out: 5HT2A IC50) [µM] | inhibition at 10 µM [1] [%] | inhibition at 1 µM [1] [%] | IC50 ([2]; 5HT2A IC50, μM) [µM]
18 | COc1cccc(OCCN2CCN(c3nsc4ccccc34)CC2)c1 [Example 68, 3-(4-(2-(3-methoxyphenoxy)ethyl)piperazin-1-yl)benzo[d]isothiazole] | 730 | 0.004 |  |  | 
19 | O=C1c2ccccc2CCN1CCN1C[C@@H]2C[C@H](C1)N(c1ccccc1)C2 [Example 329, 2-(2-((1S,5R)-6-phenyl-3,6-diazabicyclo[3.2.1]octan-3-yl)ethyl)-3,4-dihydroisoquinolin-1(2H)-one] |  | > 16.7 |  | 36 | 
20 | Fc1ccc(OC2CCN(CC3CCc4cccnc43)CC2)cc1 (centres unmarked) [Example 128, 7-((4-(4-fluorophenoxy)piperidin-1-yl)methyl)-6,7-dihydro-5H-cyclopenta[b]pyridine] |  | 0.05 | 72 |  | 
21 | O=C1Cc2ccccc2N1CCN1CCC(Oc2ccc(F)cc2)CC1 [Example 185, 1-(2-(4-(4-fluorophenoxy)piperidin-1-yl)ethyl)indolin-2-one] |  |  |  | 19 | 0.01
22 | OC1(c2ccccc2)COC2(CCN(CC3CCc4ccccc43)CC2)C1 (centres unmarked) [Example 374, 8-((2,3-dihydro-1H-inden-1-yl)methyl)-3-phenyl-1-oxa-8-azaspiro[4.5]decan-3-ol] |  | 0.25 |  | 9 | 
23 | Fc1ccc(OC2CCN(CC3CCc4ccccc43)CC2)cc1 (centres unmarked) [Example 112, 1-((2,3-dihydro-1H-inden-1-yl)methyl)-4-(4-fluorophenoxy)piperidine] | 1440 | 0.004 |  |  | 
24 | O[C@@H](CCN1CCC(Oc2ccccc2)CC1)c1ccccc1 [Example 228, (S)-3-(4-phenoxypiperidin-1-yl)-1-phenylpropan-1-ol] |  | 0.14 | 52 |  | 
25 | c1ccc2c(c1)CCC1(CCN(CC3COc4ccccc43)CC1)O2 (centres unmarked) [Example 409] | 2830 | 0.93 |  |  | 
26 | c1ccc2c(c1)CCC2CN1CCC2(CCc3cccnc3O2)CC1 (centres unmarked) [Example 406, 1-((2,3-dihydro-1H-inden-1-yl)methyl)-3′,4′-dihydrospiro[piperidine-4,2′-pyrano[2,3-b]pyridine]] |  | 0.04 |  | 7 | 
27 | O[C@@H](COc1ccccc1)CN1CCC2(CCc3ccccc3O2)CC1 [Example 441, (R)-1-phenoxy-3-(spiro[chromane-2,4′-piperidin]-1′-yl)propan-2-ol] |  | 0.03 |  | 17 | 
28 | O=C1c2ccc(F)cc2CN1CCN1CCC(Oc2ccc(F)cc2)CC1 [Example 188, 5-fluoro-2-(2-(4-(4-fluorophenoxy)piperidin-1-yl)ethyl)isoindolin-1-one] |  | 0.05 |  | 32 | 
29 | COc1ccccc1OC1CCN(CC2c3ccccc3CC2(C)C)CC1 (centres unmarked) [Example 100] | 2600 | 0.71 |  |  | 
30 | O=C1c2ccccc2CCN1CCN1CCC(Oc2cccnc2)CC1 [Example 192, 2-(2-(4-(pyridin-3-yloxy)piperidin-1-yl)ethyl)-3,4-dihydroisoquinolin-1(2H)-one] |  | 2.84 | 15 |  | 
31 | Clc1cccc(N2CCN(Cn3c(COc4ccccc4)nc4ccccc43)CC2)c1 [Example 61, 1-((4-(3-chlorophenyl)piperazin-1-yl)methyl)-2-(phenoxymethyl)-1H-benzo[d]imidazole] |  | 0.2 | 8 |  | 
32 | OC(COC1CCCCC1)CN1CCC2(CCN(c3ccccc3)C2)C1 (centres unmarked) [Example 344, 1-(cyclohexyloxy)-3-(7-phenyl-2,7-diazaspiro[4.4]nonan-2-yl)propan-2-ol] | 430 | 0.11 |  |  | 
33 | COc1cccc(OC2CCN(CCN3CCCc4ccccc4C3=O)CC2)c1 [Example 205, 2-(2-(4-(3-methoxyphenoxy)piperidin-1-yl)ethyl)-2,3,4,5-tetrahydro-1H-benzo[c]azepin-1-one] |  | 0.45 | 76 |  | 
34 | Cc1cccc(N2CCN(CC3(O)COCc4ccccc43)CC2)c1C (centres unmarked) [Example 56, 4-((4-(2,3-dimethylphenyl)piperazin-1-yl)methyl)isochroman-4-ol] | 430 | 0.13 |  |  | 
